Measurements: US20130189246A1, “TREATMENT OF OPHTHALMIC CONDITIONS WITH FLUORENONE DERIVATIVES” (The Trustees of Columbia University in the City of New York, priority 2009, published 2013)

What was measured:
[1] = tested on: bovine RPE-choroid complex; test: Water transport across ex vivo bovine RPE-choroid complex in Ussing-type chamber; assay type: cell-based
Procedure: The effect of DPOFA was examined in an ex vivo bovine RPE-choroid complex model.
Ringer's solution contained 120 mM NaCl, 5 mM KCl, 23 mM NaHCO3, 1 mM MgCl2, 1.8 mM CaCl2, 2.0 mM taurine, and 10 mM glucose at pH 7.4. The osmolariy of the solution was 295±5 mOsM. The solution was placed in the cell culture incubator set at 37° C. with 5% CO2. The solution was kept in the incubator for at least 2 says before use. Glutathione at final concentration of 1 mM was added to solutions minutes before the use in water transport experiments.
To prepare 5.5 ml of the 108 mM DPOFA stock solution, 220 mg of DPOFA was weighted. Four milliliters of water was added to the drug followed by addition of 104 microliters of 5M NaCl solution. Small magnetic stirring bar was placed to the drug suspension followed by immersion of the pH electrode. Slow addition of 1N NaOH solution began with careful pH monitoring. NaOH was added until pH reached the 7.2-7.4 range at which point the drug was completely dissolved. pH electrode and magnetic stirring bar were removed, and the volume was adjusted to 5.5 ml. The stock was aliquoted and stored at −20° C. Working DPOFA dilutions were made in Ringer's solution or in PBS.
An Ussing-type chamber was used to assess water transport across tissues preparations. Three hours before the experiment two Ussing-like chambers were assembled and filled with phosphate buffered saline. The cambers were placed on the thermo-jacketed stand to pre-warm the chambers to the 37° C.
Bovine eyes were obtained from the local abattoir and placed to the cold Ringer's solution containing 120 mM NaCl, 5 mM KCl, 23 mM NaHCO3, 1 mM MgCl2, 1.8 mM CaCl2, 2.0 mM taurine, and 10 mM glucose pH 7.4. Eyes were transferred to the lab within 2-3 hours after enucleation and rinsed repeatedly in Ringer's solution. Excessive muscle and connective tissue were trimmed at room temperature. The enucleated eye was dissected at pars plana, and the anterior portion was discarded along with the vitreous. If sensory retina detached during the removal of vitreous, the eye was considered unusable and was discarded. After the removal of vitreous, the posterior portion of the eye with the attached neuroretina was visually examined to locate the area not containing large blood vessels in the sclera. Using a size 13 brass cork bore, the selected area was punched through using a hammer.
The resulting tissue “button” was placed in a Petri dish containing Ringer's solution. The neuroretina was carefully peeled off and discarded. The flat circular sheet of the RPE-choroid tissue was carefully removed with forceps, placed on the flat spoon and transported to the Petri dish where the “basal” round window of the Ussing-type chamber (containing metal mesh) was placed and covered with Ringer's solution. The choroid-RPE circular sheet was placed on the metal mesh of the“basal” window with choroid side down. The RPE side of the RPE-choroid sheet was covered with the nylon mesh shown, followed by clipping with the “apical” portion of the Ussing-type chamber window.
The pre-warmed Ussing-like chambers were removed from the thermo-jacketed stand, freed from the PBS solution, and disassembled. […]
Pre-warmed Ringer's solution was added first to the apical side and then to the basal side of the chamber. The temperature within the chambers was checked and if it reached 35° C., the electrical resistance was measured using the modified electrode and the DVC-1000 Voltage/Current Clamp instrument (WPI, Inc.). […]

[2] = tested on: glial cell; conditions: central nervous system; reported; cited from earlier work

## CCC[C@]12CCC(=O)C=C1c1c(cc(OCC(=O)O)c(Cl)c1Cl)C2 [DPOFA, [(R)-(+)-(5,6-dichloro 2,3,9,9a-tetrahydro 3-oxo-9a-propyl-1H-fluoren-7-yl)oxy]acetic acid]
[1]; ex vivo, apical to basal side, overall result
  stimulation of water transport across the bovine RPE-choroid complex: stimulated water transport
[1]; first experiment, FIG. 1, 6 μM vs 20 μM and 60 μM
  water transport at 6 μM compared with the higher concentrations: more significant transport of water than 20 μM and 60 μM
[1]; first experiment, FIG. 1, 6 μM, 20 μM, 60 μM DPOFA
  transport of water from apical to basal side (upward shift of basal capillary meniscus): stimulated significant increase in transport of water
[1]; second experiment, FIG. 2, 6 μM, 20 μM, 60 μM DPOFA
  movement of water from apical to basal side: increased the movement of water
[1]; second experiment, FIG. 2, 6, 20, 60 μM tested
  concentration giving the strongest stimulation of water transport: 6 µM
[2]
  inhibition of glial cell swelling and reactive gliosis: effective inhibitor of glial cell swelling and reactive gliosis
